One assay relates to host microglia. Description: Pharmacological ablation of host microglia in vivo (Iba1 staining). As to conditions: PLX5622 given to mice via chow for 7 days prior to transplantation. An excerpt: For pharmacological ablation of host microglia, PLX5622 (Plexxikon Inc.), a drug that inhibits CSF1R, was given to the mice via chow for 7 days prior to transplantation. This treatment kills approximately 90% of host microglia (FIG. 3). PLX5622 is a blood-brain-barrier permeable drug in clinical trials. Two days before transplantation, PLX5622 treatment was stopped to avoid potentially killing donor cells. […]. Thus, with daily injection of tamoxifen, donor microglia outcompete host microglia for repopulation.

In assay [1] the test system is cultured human primary microglia. The assay is described as follows: Screening of human microglia for resistance to PLX5622-induced cell death. In kind it is cell-based. Particulars: for resistance to PLX5622-mediated cell ablation: mutant CSF1R expressed in cultured human primary microglia via retrovirus infection. An excerpt:
(§1) FIGS. 5A-I show screening of human and mouse microglia for resistance to PLX5622. Human microglia (5A) are normally susceptible to CSF1R antagonist PLX5622-induced cell death (5B). […] Similarly, mouse microglia (5G) are normally susceptible to CSF1R antagonist-induced cell death (5H).
Although dispersion of mouse microglia was achieved using the protocol described in Example 2, continued genetic ablation of host microglia after transplantation of donor microglia cannot likely be used in a clinical setting. Therefore, to achieve dispersion of microglia independent of any genetic manipulations, a novel method to make microglia resistant to ablation by a CSF1R inhibitor such as PLX5622 was developed. Based on the mechanism of action of PLX5622 (antagonizing the critical CSF1R receptor), mutant forms of CSF1R that are constitutively active and potentially convey resistance to PLX5622 were screened (FIG. 5). […] Mutant CSF1Rs were expressed in human donor microglia via retrovirus infection. Such PLX5622-resistant microglia can then be transplanted to hosts in which endogenous microglia are continuously being depleted pharmacologically with PLX5622 post transplantation to allow donor microglia to outcompete residual endogenous microglia for repopulation. We are currently testing resistance of microglia expressing CSFIR^L301S and others to PLX5622 ablation in vivo.

Another assay concerns mouse microglia. Description: Screening of mouse microglia for resistance to PLX5622-induced cell death. In kind it is cell-based. As to conditions: no mutant CSF1R.
Text: as §1

Consider `COc1ncc(F)cc1CNc1ccc(Cc2c[nH]c3ncc(C)cc23)c(F)n1` [PLX5622, 6-fluoro-N-[(5-fluoro-2-methoxypyridin-3-yl)methyl]-5-[(5-methyl-1H-pyrrolo[2,3-b]pyridin-3-yl)methyl]pyridin-2-amine], for which, in the assay on host microglia, the host microglia killed result was “approximately 90%”. Also, the “susceptibility to CSF1R antagonist PLX5622-induced cell death” value in assay [1] (human microglia, no mutant CSF1R) is given as “susceptible”. Moreover, the “susceptibility to CSF1R antagonist-induced cell death” value with mouse microglia was “susceptible”.

Turning to “CSF1R^L301S: constitutively active gain-of-function mutant CSF1R expressed in donor microglia”, in assay [1], the “resistance to PLX5622-mediated cell ablation” value (“resistance” for short) is listed as “high resistance”.

With “CSR1R^Y571D: constitutively active gain-of-function mutant CSF1R expressed in donor microglia”, the “resistance” value in assay [1] is on record as “high resistance”.

Take “CSR1R^Y969F: constitutively active gain-of-function mutant CSF1R expressed in donor microglia”: the “resistance” value in assay [1] is reported as “high resistance”.

(Values after patent US20230165906A1, “COMPOSITIONS AND METHODS FOR USING TRANSPLANTED MICROGLIA AS A VEHICLE FOR WIDESPREAD DELIVERY OF CELLS AND OTHER BIOLOGIC AGENTS TO THE BRAIN” (Albert Einstein College of Medicine, priority 2020, published 2023).)
